Measurements as given in patent US12649712B2, “Indene compounds, pharmaceutical compositions thereof, and their therapeutic applications” (NucMito Pharmaceuticals Co. Ltd., priority 2020, dated 2026).

Each compound was assayed on alpha-smooth muscle actin (α-SMA) (assay: Inhibition of TGF-β induced expression of alpha-smooth muscle actin (α-SMA) in CFSC cells, western blot). Settings: compound at 10 μM, TGF-β (10 ng/mL), 24 hours, decrease in band intensity vs TGF-β only.
Assay type: cell-based
Protocol: The ability of a compound to inhibit the TGF-β induced expression of alpha-smooth muscle actin (α-SMA) was evaluated in CCL4-treated fat storing (CFSC) cells. α-SMA is considered as a reliable marker of hepatic stellate cell activation and a key biomarker for liver fibrosis. See, e.g., Meng et al., Nat. Rev. Nephrol. 2016, 12, 325-38; Fabregat et al., FEBS J. 2016, 283, 2219-32.
CFSC cells maintained in a DMEM medium supplemented with 10% fetal bovine serum were seeded to 12-well culture dishes and grown to a confluence of 60-70% the next day. Culture was changed to a serum-free DMEM medium and treated with a compound at 10 μM in the presence of TGF-β (10 ng/mL). The cells were incubated for another 24 hours. All culture was maintained at 37° C. in 5% carbon dioxide.
A NP-40 lysate solution (50 mM Tris (pH 7.4), 150 mM NaCl, 1% NP-40) with EDTA free cocktail added was used to lyse the cells on ice for 30 min. The lysate was collected and centrifuged at 4° C. for 10 min at 12,000 rpm. The pellet was discarded and the supernatant was transferred to a new tube. Cell lysates were loaded with 5×loading buffer and boiled for 10 min, resolved by 10% SDS-polyacrylamide gel electrophoresis (SDS-PAGE), and transferred to PVDF membrane. The membrane was blocked with 5% skim milk in Tris-buffered saline and TWEEN® 20 (TBST; 10 mM Tris-HCl (pH 8.0), 150 mM NaCl, 0.1% TWEEN® 20) for 1 h at room temperature and then incubated with α-SMA and […] antibodies overnight at 4° C. After washing twice with TBST, the membrane was probed with a horseradish […] anti-immunoglobulin (1:5000 dilution) for 1 h at room temperature. After two subsequent rinses in TBST, immunoreactive products were reacted with ECL and visualized by a UVP CHEMSTUDIO™ imaging system. The western blotting bands are quantitated using an ImageJ software. The percentage of inhibition was obtained by calculating the percentage decrease in the band intensity compared to the one treated with TGF-β only.
The results are summarized in Table 1, wherein A represents a value no less of 90% inhibition, B represents a value less than 90% but no less than 80% inhibition, C represents a value less than 80% but no less than 70% inhibition, D represents a value less than 70% but no less than 50% inhibition, and E represents a value less than 50% with a compound at 10 μM.
`CC1=C(CC(=O)O)c2cc(F)ccc2/C1=C\c1ccc(Oc2ccccc2)cc1` [Compound A1, 2-[(1Z)-5-Fluoro-2-methyl-1-[(4-phenoxyphenyl)methylidene]-1H-inden-3-yl]acetic acid] was tested, and the inhibition at 10 µM was greater than 90%.
In the case of `COc1ccc(Oc2ccc(/C=C3/C(C)=C(CC(=O)O)c4cc(F)ccc43)cc2)cc1` [Compound A2, 2-[(1Z)-5-Fluoro-1-{[4-(4-methoxyphenoxy)phenyl]methylidene}-2-methyl-1H-inden-3-yl]acetic acid], the inhibition at 10 µM is reported as greater than 90%.
`CC1=C(CC(=O)O)c2cc(F)ccc2/C1=C\c1ccc(Oc2cccc(C(F)(F)F)c2)cc1Cl` [Compound A3, 2-[(1Z)-1-({2-Chloro-4-[3-(trifluoromethyl)phenoxy]phenyl}methylidene)-5-fluoro-2-methyl-1H-inden-3-yl]acetic acid] gave an inhibition at 10 µM greater than 90%.
`CC1=C(CC(=O)O)c2cc(F)ccc2/C1=C\c1ccc(Oc2ccc(C)cc2)cc1` [Compound A4, 2-[(1Z)-5-Fluoro-2-methyl-1-{[4-(4-methylphenoxy)phenyl]methylidene}-1H-inden-3-yl]acetic acid] showed an inhibition at 10 µM greater than 90%.
`CC1=C(CC(=O)O)c2cc(F)ccc2/C1=C\c1ccc(Oc2ccc(C(C)C)cc2)cc1` [Compound A5, 2-[(1Z)-5-Fluoro-2-methyl-1-({4-[4-(propan-2-yl)phenoxy]phenyl}methylidene)-1H-inden-3-yl]acetic acid] gave an inhibition at 10 µM greater than 90%.
With `CC1=C(CC(=O)O)c2cc(F)ccc2/C1=C\c1ccc(Oc2ccc(Br)cc2)cc1` [Compound A6, 2-[(1Z)-1-{[4-(4-Bromophenoxy)phenyl]methylidene}-5-fluoro-2-methyl-1H-inden-3-yl]acetic acid] the inhibition at 10 µM was greater than 90%.
`CC1=C(CC(=O)O)c2cc(F)ccc2/C1=C\c1ccc(Oc2cccc(C)c2)cc1` [Compound A7, 2-[(1Z)-5-Fluoro-2-methyl-1-{[4-(3-methylphenoxy)phenyl]methylidene}-1H-inden-3-yl]acetic acid] was tested, and the inhibition at 10 µM was greater than 90%.
With `CC1=C(CC(=O)O)c2cc(F)ccc2/C1=C\c1ccc(Oc2cccc(C(F)(F)F)c2)cc1` [Compound A9, (Z)-2-(5-Fluoro-2-methyl-1-(4-(3-(trifluoromethyl)phenoxy)benzylidene)-1H-inden-3-yl)acetic acid] the inhibition at 10 µM was greater than 90%.
`CCc1ccc(Oc2ccc(/C=C3/C(C)=C(CC(=O)O)c4cc(F)ccc43)cc2)cc1` [Compound A10, 2-[(1Z)-1-{[4-(4-Ethylphenoxy)phenyl]methylidene}-5-fluoro-2-methyl-1H-inden-3-yl]acetic acid] was tested, and the inhibition at 10 µM was greater than 90%.
`COc1ccc(Oc2ccc(/C=C3/C(C)=C(CC(=O)O)c4cc(F)ccc43)c(Cl)c2)cc1` [Compound A12, 2-[(1Z)-1-{[2-Chloro-4-(4-methoxyphenoxy)phenyl]methylidene}-5-fluoro-2-methyl-1H-inden-3-yl]acetic acid] showed an inhibition at 10 µM greater than 90%.
`COc1cc(Oc2ccc(C(C)C)cc2)ccc1/C=C1/C(C)=C(CC(=O)O)c2cc(F)ccc21` [Compound A13, 2-[(1Z)-5-Fluoro-1-({2-methoxy-4-[4-(propan-2-yl)phenoxy]phenyl}-methylidene)-2-methyl-1H-inden-3-yl]acetic acid] gave an inhibition at 10 µM of less than 50%.
`CC1=C(CC(=O)O)c2cc(F)ccc2/C1=C\c1ccc(Oc2ccc3ccccc3c2)cc1` [Compound A14, 2-[(1Z)-5-Fluoro-2-methyl-1-{[4-(naphthalen-2-yloxy)phenyl]methylidene}-1H-inden-3-yl]acetic acid] showed an inhibition at 10 µM greater than 90%.
Compound `CC1=C(CC(=O)O)c2cc(F)ccc2/C1=C\c1ccc(Oc2ccc(C(C)C)cc2)cc1Cl` [Compound A15, 2-[(1Z)-1-({2-Chloro-4-[4-(propan-2-yl)phenoxy]phenyl}methylidene)-5-fluoro-2-methyl-1H-inden-3-yl]acetic acid] has an inhibition at 10 µM of 80 to 90%.
`CC1=C(CC(=O)O)c2cc(F)ccc2/C1=C\c1ccc(Oc2ccc(F)cc2F)cc1` [Compound A16, 2-[(1Z)-1-{[4-(2,4-Difluorophenoxy)phenyl]methylidene}-5-fluoro-2-methyl-1H-inden-3-yl]acetic acid] gave an inhibition at 10 µM greater than 90%.
Compound `CC1=C(CC(=O)O)c2cc(F)ccc2/C1=C\c1ccc(Oc2ccc(F)cc2Br)cc1` [Compound A17, 2-[(1Z)-1-{[4-(2-bromo-4-fluorophenoxy)phenyl]methylidene}-5-fluoro-2-methyl-1H-inden-3-yl]acetic acid] has an inhibition at 10 µM greater than 90%.
`CC1=C(CC(=O)O)c2cc(F)ccc2/C1=C\c1ccc(Oc2cc(F)c(F)cc2F)cc1` [Compound A18, 2-[(1Z)-5-Fluoro-2-methyl-1-{[4-(2,4,5-trifluorophenoxy)phenyl]methylidene}-1H-inden-3-yl]acetic acid] showed an inhibition at 10 µM of 70 to 80%.
`CC1=C(CCC(=O)O)c2ccccc2/C1=C\c1ccc(Oc2ccc(F)cc2)cc1` [Compound A19, 3-[(1Z)-1-{[4-(4-Fluorophenoxy)phenyl]methylidene}-2-methyl-1H-inden-3-yl]propanoic acid] was tested, and the inhibition at 10 µM was greater than 90%.
`CC1=C(CC(=O)O)c2cc(F)ccc2/C1=C\c1ccc(Oc2ccc(F)nc2)cc1` [Compound A20, 2-[(1Z)-5-Fluoro-1-({4-[(6-fluoropyridin-3-yl)oxy]phenyl}methylidene)-2-methyl-1H-inden-3-yl]acetic acid] showed an inhibition at 10 µM of less than 50%.
For `CC1=C(CC(=O)O)c2cc(F)ccc2/C1=C\c1ccc(Oc2cnc(F)c(C)c2)cc1` [Compound A21, 2-[(1Z)-5-Fluoro-1-({4-[(6-fluoro-5-methylpyridin-3-yl)oxy]phenyl}-methylidene)-2-methyl-1H-inden-3-yl]acetic acid], the inhibition at 10 µM was 80 to 90%.
`CC1=C(CC(=O)O)c2cc(F)ccc2/C1=C\c1ccc(Oc2cccc3ncccc23)cc1` [Compound A22, (Z)-2-(5-Fluoro-2-methyl-1-(4-(quinolin-5-yloxy)benzylidene)-1H-inden-3-yl)acetic acid] was tested, and the inhibition at 10 µM was 50 to 70%.
Work on `CC1=C(CC(=O)NO)c2cc(F)ccc2/C1=C\c1ccc(Oc2ccccc2)cc1` [Compound A23, 2-[(1Z)-5-Fluoro-2-methyl-1-[(4-phenoxyphenyl)methylidene]-1H-inden-3-yl]-N-hydroxyacetamide] yielded an inhibition at 10 µM greater than 90%.
For `CC1=C(CC(=O)NO)c2cc(F)ccc2/C1=C\c1ccc(Oc2ccc(F)cc2)cc1` [Compound A24, 2-[(1Z)-5-Fluoro-1-{[4-(4-fluorophenoxy)phenyl]methylidene}-2-methyl-1H-inden-3-yl]-N-hydroxyacetamide], the inhibition at 10 µM was 80 to 90%.
`CC1=C(CC(N)=O)c2cc(F)ccc2/C1=C\c1ccc(Oc2ccc(F)cc2)cc1` [Compound A25, 2-[(1Z)-5-Fluoro-1-{[4-(4-fluorophenoxy)phenyl]methylidene}-2-methyl-1H-inden-3-yl]acetamide] showed an inhibition at 10 µM of 70 to 80%.
`CNC(=O)CC1=C(C)/C(=C/c2ccc(Oc3ccc(F)cc3)cc2)c2ccc(F)cc21` [Compound A26, 2-[(1Z)-5-Fluoro-1-{[4-(4-fluorophenoxy)phenyl]methylidene}-2-methyl-1H-inden-3-yl]-N-methylacetamide] gave an inhibition at 10 µM of 70 to 80%.
Compound `CC1=C(CC(=O)NCCO)c2cc(F)ccc2/C1=C\c1ccc(Oc2ccc(F)cc2)cc1` [Compound A27, 2-[(1Z)-5-Fluoro-1-{[4-(4-fluorophenoxy)phenyl]methylidene}-2-methyl-1H-inden-3-yl]-N-(2-hydroxyethyl)acetamide] has an inhibition at 10 µM of 80 to 90%.
Work on `CC1=C(CC(=O)O)c2cc(F)ccc2/C1=C\c1ccc(N(C)c2ccccc2)cc1` [Compound A29, 2-[(1Z)-5-Fluoro-2-methyl-1-({4-[methyl(phenyl)amino]phenyl}methylidene)-1H-inden-3-yl]acetic acid] yielded an inhibition at 10 µM of 70 to 80%.
Work on `CC1=C(CC(=O)O)c2cc(F)ccc2/C1=C\c1ccc(N(Cc2ccccc2)c2ccc(F)cc2)cc1` [Compound A30, 2-[(1Z)-1-({4-[Benzyl(4-fluorophenyl)amino]phenyl}methylidene)-5-fluoro-2-methyl-1H-inden-3-yl]acetic acid] yielded an inhibition at 10 µM of 70 to 80%.
For `CC1=C(CC(=O)O)c2cc(F)ccc2/C1=C\c1ccc(N(C)c2ccc(F)cc2)cc1` [Compound A31, 2-[(1Z)-5-Fluoro-1-({4-[(4-fluorophenyl)(methyl)amino]phenyl}methylidene)-2-methyl-1H-inden-3-yl]acetic acid], the inhibition at 10 µM was greater than 90%.
For `CCN(c1ccc(F)cc1)c1ccc(/C=C2/C(C)=C(CC(=O)O)c3cc(F)ccc32)cc1` [Compound A32, 2-[(1Z)-1-({4-[Ethyl(4-fluorophenyl)amino]phenyl}methylidene)-5-fluoro-2-methyl-1H-inden-3-yl]acetic acid], the inhibition at 10 µM was greater than 90%.
